Experimental data published in patent US20240246964A1 (Arbutus Biopharma Corporation, priority 2021, published 2024).

Tests used:
[1] = target: PD-L1 His protein / PD-1 Fc protein (Homo sapiens (Human), UniProt Q9NZQ7); test: HTRF Assay (PD-1/PD-L1 interaction); format: binding; settings: PD-L1 His 6 nM, PD-1 Fc 6 nM
human PD-L1 = human PD-L1 (Homo sapiens (Human), UniProt Q9NZQ7); test: T cell activation luciferase reporter cell culture system (T Cell Activation Assay); format: cell-based; settings: luciferase reporter assay; PD-L1 aAPC/CHO-K1 cells with PD-1 effector Jurkat T cells
human PD-L1, sequence (Q9NZQ7 19-290): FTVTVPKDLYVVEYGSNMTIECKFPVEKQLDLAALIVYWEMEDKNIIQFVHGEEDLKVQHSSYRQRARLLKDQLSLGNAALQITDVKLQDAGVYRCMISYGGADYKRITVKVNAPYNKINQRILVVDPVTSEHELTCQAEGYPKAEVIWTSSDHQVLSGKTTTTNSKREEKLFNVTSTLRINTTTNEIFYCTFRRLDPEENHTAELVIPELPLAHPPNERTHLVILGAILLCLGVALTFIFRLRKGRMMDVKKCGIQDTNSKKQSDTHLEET

PD-L1 His protein / PD-1 Fc protein, sequence (Q9NZQ7 19-238): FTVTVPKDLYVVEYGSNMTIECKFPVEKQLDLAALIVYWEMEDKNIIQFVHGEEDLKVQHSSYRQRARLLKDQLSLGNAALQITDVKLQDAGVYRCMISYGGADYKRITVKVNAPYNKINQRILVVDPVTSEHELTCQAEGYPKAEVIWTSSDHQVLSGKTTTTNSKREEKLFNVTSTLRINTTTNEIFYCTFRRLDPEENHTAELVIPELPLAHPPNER

Compound	IC50 [1]	EC50 (human PD-L1)
COc1cc(-c2nccc(-c3cccc(-c4ccc(CNC[C@H](C)O)c(OC)n4)c3Cl)c2Cl)ccc1CNC[C@H](C)O [Example 301, (S)-1-(((6-(2-Chloro-3-(3-chloro-2-(4-((((S)-2-hydroxypropyl)amino)methyl)-3-methoxyphenyl)pyridin-4-yl)phenyl)-2-methoxypyridin-3-yl)methyl)amino)propan-2-ol]	0.57 nM	19.7 nM
COc1cc(-c2nccc(-c3cccc(-c4ccc(CN5CC6(C5)CN(C(C)=O)C6)c(OC)n4)c3Cl)c2Cl)ccc1CN1CC2(CNC(=O)C2)C1 [Example 519, 2-(4-(4-(3-(5-((6-Acetyl-2,6-diazaspiro[3.3]heptan-2-yl)methyl)-6-methoxypyridin-2-yl)-2-chlorophenyl)-3-chloropyridin-2-yl)-2-methoxybenzyl)-2,6-diazaspiro[3.4]octan-7-one]	1.86 nM	12.8 nM
COc1cc(-c2nccc(-c3cccc(-c4ccc(CNC[C@@H]5CCCO5)c(OC)n4)c3Cl)c2Cl)cc2c1CN(C[C@H](C)O)CC2 [Compound 216, (S)-1-(6-(3-chloro-4-(2-chloro-3-(6-methoxy-5-(((((S)-tetrahydrofuran-2-yl)methyl)amino)methyl)pyridin-2-yl)phenyl)pyridin-2-yl)-8-methoxy-3,4-dihydroisoquinolin-2(1H)-yl)propan-2-ol]	4.51 nM	271 nM
CCC(=O)N1CCC(NCc2ccc(-c3nccc(-c4cccc(-c5ccc(CNC6CCN(C(=O)CC)CC6)c(OC)n5)c4Cl)c3Cl)cc2OC)CC1 [Example 344, 1-(4-(((6-(2-Chloro-3-(3-chloro-2-(3-methoxy-4-(((1-propionylpiperidin-4-yl)amino)methyl)phenyl)pyridin-4-yl)phenyl)-2-methoxypyridin-3-yl)methyl)amino)piperidin-1-yl)propan-1-one]	6.41 nM	14.9 nM
COc1cc(-c2nccc(-c3cccc(-c4ccc(CNC5CCN(C(C)=O)CC5)c(OC)n4)c3Cl)c2Cl)ccc1CNC1CC(C)(C)C1 [Example 381, 1-(4-(((6-(2-Chloro-3-(3-chloro-2-(4-(((3,3-dimethylcyclobutyl)amino)methyl)-3-methoxyphenyl)pyridin-4-yl)phenyl)-2-methoxypyridin-3-yl)methyl)amino)piperidin-1-yl)ethan-1-one]	0.184 nM	53.3 nM
COc1cc(-c2nccc(-c3cccc(-c4ccc(CNC5CCN(C(C)=O)CC5)c(OC)n4)c3Cl)c2Cl)ccc1CNC1CCNCC1 [Example 417, 1-(4-(((6-(2-chloro-3-(3-chloro-2-(3-methoxy-4-((piperidin-4-ylamino)methyl)phenyl)pyridin-4-yl)phenyl)-2-methoxypyridin-3-yl)methyl)amino)piperidin-1-yl)ethan-1-one]	3.67 nM	58.3 nM
COc1cc(-c2nccc(-c3cccc(-c4ccc(CNC5CCN(C(C)=O)CC5)c(OC)n4)c3Cl)c2Cl)cc(F)c1CNC1CCN(C(C)=O)CC1 [Example 285, 1-(4-(((6-(3-(2-(4-(((1-Acetylpiperidin-4-yl)amino)methyl)-3-fluoro-5-methoxyphenyl)-3-chloropyridin-4-yl)-2-chlorophenyl)-2-methoxypyridin-3-yl)methyl)amino)piperidin-1-yl)ethan-1-one]	0.716 nM	14.2 nM
COc1cc(-c2nccc(-c3cccc(-c4ccc(CN5CC6(C5)CN(C(C)=O)C6)c(OC)n4)c3Cl)c2Cl)ccc1CNC1CCN(C(C)=O)CC1 [Example 483, 1-(4-((4-(4-(3-(5-((6-acetyl-2,6-diazaspiro[3.3]heptan-2-yl)methyl)-6-methoxypyridin-2-yl)-2-chlorophenyl)-3-chloropyridin-2-yl)-2-methoxybenzyl)amino)piperidin-1-yl)ethan-1-one]	2.63 nM	39.7 nM
COc1cc(-c2nccc(-c3cccc(-c4ccc(CN5CC6(CNC(=O)C6)C5)c(OC)n4)c3C)c2C)ccc1CN1CC2(CNC(=O)C2)C1 [Example 415, 2-((2-methoxy-6-(3-(2-(3-methoxy-4-((7-oxo-2,6-diazaspiro[3.4]octan-2-yl)methyl)phenyl)-3-methylpyridin-4-yl)-2-methylphenyl)pyridin-3-yl)methyl)-2,6-diazaspiro[3.4]octan-7-one]	0.25 nM	5100 nM
COc1nc(-c2cccc(-c3ccnc(-c4cc(OC)c5nc(CN[C@H]6CC[C@H](O)CC6)nn5c4)c3Cl)c2Cl)ccc1CNC1CCN(C(C)=O)CC1 [Example 595, 1-(4-(((6-(2-Chloro-3-(3-chloro-2-(2-((((1r,4r)-4-hydroxycyclohexyl)amino)methyl)-8-methoxy-[1,2,4]triazolo[1,5-a]pyridin-6-yl)pyridin-4-yl)phenyl)-2-methoxypyridin-3-yl)methyl)amino)piperidin-1-yl)ethan-1-one]	0.38 nM	211 nM
CNCc1cn(C)c2nc(-c3cccc(-c4ccnc(-c5ccc(CNC[C@@H]6CCC(=O)N6)c(OC)c5)c4Cl)c3Cl)ccc12 [Compound 94, (S)-5-(((4-(3-chloro-4-(2-chloro-3-(1-methyl-3-((methylamino)methyl)-1H-pyrrolo[2,3-b]pyridin-6-yl)phenyl)pyridin-2-yl)-2-methoxybenzyl)amino)methyl)pyrrolidin-2-one]	0.5 nM	47.5 nM
COc1cc(-c2nccc(-c3cccc(-c4ccc(CNC5CCN(c6ccncc6)CC5)c(OC)n4)c3Cl)c2Cl)ccc1CNC1CCN(c2ccncc2)CC1 [Example 424, N-((6-(2-Chloro-3-(3-chloro-2-(3-methoxy-4-(((1-(pyridin-4-yl)piperidin-4-yl)amino)methyl)phenyl)pyridin-4-yl)phenyl)-2-methoxypyridin-3-yl)methyl)-1-(pyridin-4-yl)piperidin-4-amine]	3.59 nM	86.6 nM
CNCc1ccc(-c2cccc(-c3ccnc(-c4cc(CN5CC(CC(=O)O)C5)cc(OC)c4)c3Cl)c2Cl)nc1OC [Compound 172, 2-(1-(3-(3-chloro-4-(2-chloro-3-(6-methoxy-5-((methylamino)methyl)pyridine-2-yl)phenyl)pyridine-2-yl)-5-methoxybenzyl)pyridine1333-3-yl)acetic acid]	3.32 nM	≥ 10000 nM
COc1cc(-c2nccc(-c3cccc(NC(=O)c4ccc(CNCCO)cn4)c3C)c2Cl)cc(F)c1CNCCO [Example 762, N-(3-(3-chloro-2-(3-fluoro-4-(((2-hydroxyethyl)amino)methyl)-5-methoxyphenyl)pyridin-4-yl)-2-methylphenyl)-5-(((2-hydroxyethyl)amino)methyl)picolinamide]	0.75 nM	49.9 nM
COCCNCc1cn(C)c2nc(-c3cccc(-c4ccnc(-c5ccc(CNC[C@@H]6CCC(=O)N6)c(OC)c5)c4Cl)c3Cl)ccc12 [Compound 100, (S)-5-(((4-(3-chloro-4-(2-chloro-3-(3-(((2-methoxyethyl)amino)methyl)-1-methyl-1H-pyrrolo[2,3-b]pyridin-6-yl)phenyl)pyridin-2-yl)-2-methoxybenzyl)amino)methyl)pyrrolidin-2-one]	0.9 nM	59 nM
COc1cc(-c2cncc(-c3cccc(-c4ccc(CN5CC6(CNC(=O)C6)C5)c(OC)n4)c3Cl)c2Cl)ccc1CN1CC2(CNC(=O)C2)C1 [Compound 642, 2-(4-(4-Chloro-5-(2-chloro-3-(6-methoxy-5-((7-oxo-2,6-diazaspiro[3.4]octan-2-yl)methyl)pyridin-2-yl)phenyl)pyridin-3-yl)-2-methoxybenzyl)-2,6-diazaspiro[3.4]octan-7-one]	0.19 nM	181 nM
COc1cc(-c2nccc(-c3cccc(-c4ccc(CNC[C@H](C)O)c(OC)n4)c3Cl)c2Cl)cc2c1CN(CCC(=O)O)CC2 [Example 293, (S)-3-(6-(3-Chloro-4-(2-chloro-3-(5-(((2-hydroxypropyl)amino)methyl)-6-methoxypyridin-2-yl)phenyl)pyridin-2-yl)-8-methoxy-3,4-dihydroisoquinolin-2(1H)-yl)propanoic acid]	0.27 nM	60.5 nM
COc1cc(-c2nccc(-c3cccc(-c4ccc(CNCCCF)c(OC)n4)c3C(F)(F)F)c2Cl)ccc1CNCCCF [Example 587, N-((6-(3-(3-Chloro-2-(4-(((3-fluoropropyl)amino)methyl)-3-methoxyphenyl)pyridin-4-yl)-2-(trifluoromethyl)phenyl)-2-methoxypyridin-3-yl)methyl)-3-fluoropropan-1-amine]	160 nM	≥ 10000 nM
COc1cc(-c2nccc(-c3cccc(NC(=O)c4ccc(CNCCO)cn4)c3C)c2Cl)ccc1CNC1CCOCC1 [Example 703, N-(3-(3-Chloro-2-(3-methoxy-4-(((tetrahydro-2H-pyran-4-yl)amino)methyl)phenyl)pyridin-4-yl)-2-methylphenyl)-5-(((2-hydroxyethyl)amino)methyl)picolinamide]	0.14 nM	146 nM
COc1nc(-c2cccc(-c3ccnc(-c4ccc5c6c(n(C)c5c4)CCN(CCO)C6)c3Cl)c2Cl)ccc1CNC[C@@H]1CCC(=O)N1 [Compound 158, (S)-5-((((6-(2-chloro-3-(3-chloro-2-(2-(2-hydroxyethyl)-5-methyl-2,3,4,5-tetrahydro-1H-pyrido[4,3-b]indol-7-yl)pyridine-4-yl)phenyl)-2-methoxypyridin-3-yl)methyl)amino)methyl)pyridine1330ne-2-one]	0.64 nM	≥ 10000 nM
COc1cc(-c2nccc(-c3cccc(-c4ccc(CN5CC6(CNC(=O)C6)C5)c(OC)n4)c3Cl)c2Cl)ccc1CN1CCC(NC(C)=O)CC1 [Example 400, N-(1-(4-(3-chloro-4-(2-chloro-3-(6-methoxy-5-((7-oxo-2,6-diazaspiro[3.4]-octan-2-yl)methyl)pyridin-2-yl)-phenyl)pyridin-2-yl)-2-methoxybenzyl)piperidin-4-yl)acetamide]	0.272 nM	16.4 nM
